Laboratory results taken from PubChem BioAssay AID1918991 (Molecular Pharmacology Branch, DTP, NCI, 2023).

System: 186277-243-T-J2-PDC complex spheroid growth
Experiment: Anticancer human tumor 186277-243-T-J2-PDC patient-derived colon adenocarcinoma cell line growth inhibition [AhR]
Settings: for IC50: curve of first compound; for viability, T/C: stronger effect = lower value
Method in brief: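 Spheroids combined tumor cells with HUVEC endothelial cells and human MSCs as stroma. AhR antagonists were paired with standard or investigational drugs, each dosed in half-log steps down from near clinical Cmax, or from 10 microM where Cmax was unknown.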

[1] = second compound 0.1 µM, first compound 0.0316 µM
[2] = second compound 0.1 µM, first compound 0.1 µM
[3] = second compound 0.316 µM, first compound 0.0316 µM
[4] = second compound 0.316 µM, first compound 0.1 µM
[5] = second compound 1 µM, first compound 0.0316 µM
[6] = second compound 1 µM, first compound 0.1 µM
[7] = second compound 3.16 µM, first compound 0.0316 µM
[8] = second compound 3.16 µM, first compound 0.1 µM
[9] = second compound 10 µM, first compound 0.0316 µM
[10] = second compound 10 µM, first compound 0.1 µM
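Also: spheroids exposed to compounds for seven days before the viability read.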
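For viability, T/C in this document: luminescent signal used as a stand-in for viable cell amount; 100% = DMSO vehicle control wells.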

**Q.** With `Cn1ncnc1C1c2n[nH]c(=O)c3cc(F)cc(c23)NC1c1ccc(F)cc1` (stereo not given) + CC(CO)NC(=O)c1cc(-c2ccc(Cl)cc2)nn(-c2cnn(C)c2)c1=O as the compound, how does the IC50 (second compound 0.1 µM) read?
**A.** > 100 nM

**Q.** And the IC50 (second compound 0.316 µM)?
**A.** > 100 nM

**Q.** And the IC50 (second compound 1 µM)?
**A.** > 100 nM

**Q.** What about the IC50 (second compound 3.16 µM) of the same compound?
**A.** > 100 nM

**Q.** What about the IC50 (second compound 10 µM) of the same compound?
**A.** > 100 nM

**Q.** And the viability, T/C (second compound 0.1 µM, first compound 0.000316 µM)?
**A.** 103%

**Q.** What about the viability, T/C (second compound 0.1 µM, first compound 0.001 µM) of the same compound?
**A.** 99.3%

**Q.** What about the viability, T/C (second compound 0.1 µM, first compound 0.00316 µM) of the same compound?
**A.** 102%

**Q.** And the viability, T/C (second compound 0.1 µM, first compound 0.01 µM)?
**A.** 93.5%

**Q.** What about the viability, T/C [1] of the same compound?
**A.** 89.4%

**Q.** What about the viability, T/C [2] of the same compound?
**A.** 63.8%

**Q.** What about the viability, T/C (second compound 0.316 µM, first compound 0.000316 µM) of the same compound?
**A.** 111%

**Q.** And the viability, T/C (second compound 0.316 µM, first compound 0.001 µM)?
**A.** 106%

**Q.** And the viability, T/C (second compound 0.316 µM, first compound 0.00316 µM)?
**A.** 93.1%

**Q.** What about the viability, T/C (second compound 0.316 µM, first compound 0.01 µM) of the same compound?
**A.** 96.9%

**Q.** What about the viability, T/C [3] of the same compound?
**A.** 83%

**Q.** What about the viability, T/C [4] of the same compound?
**A.** 64.5%

**Q.** And the viability, T/C (second compound 1 µM, first compound 0.000316 µM)?
**A.** 102%

**Q.** What about the viability, T/C (second compound 1 µM, first compound 0.001 µM) of the same compound?
**A.** 108%

**Q.** What about the viability, T/C (second compound 1 µM, first compound 0.00316 µM) of the same compound?
**A.** 118%

**Q.** What about the viability, T/C (second compound 1 µM, first compound 0.01 µM) of the same compound?
**A.** 94.6%

**Q.** And the viability, T/C [5]?
**A.** 79.4%

**Q.** What about the viability, T/C [6] of the same compound?
**A.** 69.3%

**Q.** What about the viability, T/C (second compound 3.16 µM, first compound 0.000316 µM) of the same compound?
**A.** 92.7%

**Q.** And the viability, T/C (second compound 3.16 µM, first compound 0.001 µM)?
**A.** 109%

**Q.** And the viability, T/C (second compound 3.16 µM, first compound 0.00316 µM)?
**A.** 94.7%

**Q.** And the viability, T/C (second compound 3.16 µM, first compound 0.01 µM)?
**A.** 86.4%

**Q.** What about the viability, T/C [7] of the same compound?
**A.** 76.5%

**Q.** And the viability, T/C [8]?
**A.** 67.7%

**Q.** And the viability, T/C (second compound 10 µM, first compound 0.000316 µM)?
**A.** 87%

**Q.** And the viability, T/C (second compound 10 µM, first compound 0.001 µM)?
**A.** 98.1%

**Q.** What about the viability, T/C (second compound 10 µM, first compound 0.00316 µM) of the same compound?
**A.** 84.5%

**Q.** What about the viability, T/C (second compound 10 µM, first compound 0.01 µM) of the same compound?
**A.** 72.3%

**Q.** And the viability, T/C [9]?
**A.** 61.9%

**Q.** And the viability, T/C [10]?
**A.** 56%

**Q.** For `NS(=O)(=O)OCC1CC(n2ccc3c(NC4CCc5ccccc54)ncnc32)CC1O` (stereo not given) + CC(CO)NC(=O)c1cc(-c2ccc(Cl)cc2)nn(-c2cnn(C)c2)c1=O, which IC50 (second compound 0.1 µM) is on record?
**A.** 205 nM

**Q.** And the IC50 (second compound 0.316 µM)?
**A.** 193 nM

**Q.** What about the IC50 (second compound 1 µM) of the same compound?
**A.** 150 nM

**Q.** And the IC50 (second compound 3.16 µM)?
**A.** 139 nM

**Q.** What about the IC50 (second compound 10 µM) of the same compound?
**A.** 110 nM

**Q.** And the viability, T/C [1]?
**A.** 102%

**Q.** What about the viability, T/C [2] of the same compound?
**A.** 76.7%

**Q.** And the viability, T/C (second compound 0.1 µM, first compound 0.316 µM)?
**A.** 33.5%

**Q.** What about the viability, T/C (second compound 0.1 µM, first compound 1 µM) of the same compound?
**A.** 11%

**Q.** And the viability, T/C (second compound 0.1 µM, first compound 3.16 µM)?
**A.** 4.62%

**Q.** What about the viability, T/C (second compound 0.1 µM, first compound 10 µM) of the same compound?
**A.** 1.34%

**Q.** And the viability, T/C [3]?
**A.** 91.8%

**Q.** What about the viability, T/C [4] of the same compound?
**A.** 76.7%

**Q.** And the viability, T/C (second compound 0.316 µM, first compound 0.316 µM)?
**A.** 29.4%

**Q.** What about the viability, T/C (second compound 0.316 µM, first compound 1 µM) of the same compound?
**A.** 10.7%

**Q.** And the viability, T/C (second compound 0.316 µM, first compound 3.16 µM)?
**A.** 3.18%

**Q.** And the viability, T/C (second compound 0.316 µM, first compound 10 µM)?
**A.** 0.98%

**Q.** What about the viability, T/C [5] of the same compound?
**A.** 89.9%

**Q.** What about the viability, T/C [6] of the same compound?
**A.** 65.1%

**Q.** What about the viability, T/C (second compound 1 µM, first compound 0.316 µM) of the same compound?
**A.** 22.1%

**Q.** And the viability, T/C (second compound 1 µM, first compound 1 µM)?
**A.** 8.96%

**Q.** And the viability, T/C (second compound 1 µM, first compound 3.16 µM)?
**A.** 3.1%

**Q.** What about the viability, T/C (second compound 1 µM, first compound 10 µM) of the same compound?
**A.** 1.27%

**Q.** And the viability, T/C [7]?
**A.** 78.3%

**Q.** What about the viability, T/C [8] of the same compound?
**A.** 61.1%

**Q.** What about the viability, T/C (second compound 3.16 µM, first compound 0.316 µM) of the same compound?
**A.** 22.9%

**Q.** What about the viability, T/C (second compound 3.16 µM, first compound 1 µM) of the same compound?
**A.** 7.89%

**Q.** What about the viability, T/C (second compound 3.16 µM, first compound 3.16 µM) of the same compound?
**A.** 2.24%

**Q.** What about the viability, T/C (second compound 3.16 µM, first compound 10 µM) of the same compound?
**A.** 1.06%

**Q.** And the viability, T/C [9]?
**A.** 63.5%

**Q.** And the viability, T/C [10]?
**A.** 53.2%

**Q.** And the viability, T/C (second compound 10 µM, first compound 0.316 µM)?
**A.** 22%

**Q.** And the viability, T/C (second compound 10 µM, first compound 1 µM)?
**A.** 8.3%

**Q.** And the viability, T/C (second compound 10 µM, first compound 3.16 µM)?
**A.** 2.58%

**Q.** And the viability, T/C (second compound 10 µM, first compound 10 µM)?
**A.** 1.14%
